Laboratory results: ChEMBL document CHEMBL1131172 (J Med Chem, 1998)

How the values were obtained:
[1] = biological target: T1, Bifunctional dihydrofolate reductase-thymidylate synthase (Toxoplasma gondii, UniProt Q07422)
T1 sequence (Q07422 whole entry): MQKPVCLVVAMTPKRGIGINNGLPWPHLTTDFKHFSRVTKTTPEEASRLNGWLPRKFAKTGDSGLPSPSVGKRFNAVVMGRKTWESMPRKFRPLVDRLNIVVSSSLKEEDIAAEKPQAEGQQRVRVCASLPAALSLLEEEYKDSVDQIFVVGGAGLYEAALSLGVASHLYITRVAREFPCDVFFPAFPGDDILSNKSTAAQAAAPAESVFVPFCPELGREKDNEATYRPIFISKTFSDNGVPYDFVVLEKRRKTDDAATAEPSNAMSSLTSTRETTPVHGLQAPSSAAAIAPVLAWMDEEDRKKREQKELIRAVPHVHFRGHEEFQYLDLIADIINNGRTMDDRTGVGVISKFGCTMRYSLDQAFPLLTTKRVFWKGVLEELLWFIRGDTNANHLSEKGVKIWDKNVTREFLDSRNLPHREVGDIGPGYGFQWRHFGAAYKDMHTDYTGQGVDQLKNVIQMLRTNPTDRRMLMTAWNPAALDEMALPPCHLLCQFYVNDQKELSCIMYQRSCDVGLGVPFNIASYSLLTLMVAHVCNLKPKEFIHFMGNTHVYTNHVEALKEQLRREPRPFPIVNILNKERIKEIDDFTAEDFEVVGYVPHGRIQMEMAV
Description: Inhibitory activity against dihydrofolate reductase (DHFR) from Toxoplasma gondii

Dihydrofolate reductase [2] = biological target: T2, Dihydrofolate reductase (Rattus norvegicus, UniProt Q920D2)
T2 sequence (Q920D2 whole entry): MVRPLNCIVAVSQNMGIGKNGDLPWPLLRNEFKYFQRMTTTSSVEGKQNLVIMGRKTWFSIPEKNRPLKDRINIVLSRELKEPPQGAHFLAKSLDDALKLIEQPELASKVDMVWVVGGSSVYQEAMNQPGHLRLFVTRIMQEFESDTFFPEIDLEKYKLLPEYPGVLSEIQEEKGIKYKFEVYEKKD
Description: Inhibitory activity against dihydrofolate reductase (DHFR) from rat liver

Dihydrofolate reductase [3] = biological target: T3, Dihydrofolate reductase (Pneumocystis carinii, UniProt P16184)
T3 sequence (P16184 whole entry): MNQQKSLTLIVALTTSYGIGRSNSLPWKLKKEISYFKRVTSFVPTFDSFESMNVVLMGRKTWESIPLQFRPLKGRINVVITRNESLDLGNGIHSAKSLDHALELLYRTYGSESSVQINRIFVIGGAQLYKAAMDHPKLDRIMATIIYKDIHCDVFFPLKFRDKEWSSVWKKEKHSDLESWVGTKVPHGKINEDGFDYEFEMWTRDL
Description: Inhibitory activity against dihydrofolate reductase (DHFR) from Pneumocystis carinii

UO-31 [4] = assay: inhibition of the growth of renal cancer(UO-31) cell line; assay type: functional; conditions: Homo sapiens
SF-268 [5] = assay: Inhibition of the growth of CNS cancer(SF-268) cell line at 0.01 uM; assay type: functional; conditions: Homo sapiens
NCI-H522 [6] = assay: inhibition of the growth of non-small-cell lung cancer (NCI-H522) cell line; assay type: functional; conditions: Homo sapiens
SF-539 [7] = assay: inhibition of the growth of CNS cancer(SF-539) cell line; assay type: functional; conditions: Homo sapiens
HCT-116 [8] = assay: inhibition of the growth of colon cancer(HCT116) cell line; assay type: functional; conditions: Homo sapiens
SNB-19 [9] = assay: inhibition of the growth of CNS cancer(SNB-19) cell line; assay type: functional; conditions: Homo sapiens
NCI/ADR-RES [10] = assay: inhibition of the growth of breast cancer (MCF7/ADR-RES) cell line; assay type: functional; conditions: Homo sapiens
MDA-N [11] = assay: Inhibition of the growth of breast cancer(MDA-N) cell line at 0.01 uM; assay type: functional; conditions: Homo sapiens
KM12 [12] = assay: Inhibition of the growth of colon cancer(KM-12) cell line at 0.01 uM; assay type: functional; conditions: Homo sapiens
NCI/ADR-RES [13] = assay: Inhibition of the growth of breast cancer (MCF7/ADR-RES) cell line at 0.01 uM; assay type: functional; conditions: Homo sapiens
NCI-H322M [14] = assay: inhibition of the growth of non-small-cell lung cancer (NCI-H322M) cell line; assay type: functional; conditions: Homo sapiens
RPMI-8226 [15] = assay: Inhibition of the growth of leukemia (RPMI-8226) cell line at 0.01 uM; assay type: functional; conditions: Homo sapiens
MCF7 [16] = assay: inhibition of the growth of breast cancer (MCF-7) cell line; assay type: functional; conditions: Homo sapiens
786-0 [17] = assay: Inhibition of the growth of renal cancer(786-0) cell line at 0.01 uM; assay type: functional; conditions: Homo sapiens
NCI-H460 [18] = assay: inhibition of the growth of non-small-cell lung cancer (NCI-H460) cell line; assay type: functional; conditions: Homo sapiens
SR [19] = assay: Inhibition of the growth of leukemia(SR) cell line; assay type: functional; conditions: Homo sapiens
CAKI-1 [20] = assay: inhibition of the growth of renal cancer(CAKI-1) cell line; assay type: functional; conditions: Homo sapiens
KM12 [21] = assay: inhibition of the growth of colon cancer(KM-12) cell line; assay type: functional; conditions: Homo sapiens
MDA-MB-435 [22] = assay: Inhibition of the growth of breast cancer (MDA-MB-435) cell line at 0.01 uM; assay type: functional; conditions: Homo sapiens
OVCAR-8 [23] = assay: inhibition of the growth of ovarian cancer(OVCAR-8) cell line; assay type: functional; conditions: Homo sapiens
SNB-19 [24] = assay: Inhibition of the growth of CNS cancer(SNB-19) cell line at 0.01 uM; assay type: functional; conditions: Homo sapiens
IGROV-1 [25] = assay: Inhibition of the growth of ovarian cancer(IGROVI) cell line at 0.01 uM; assay type: functional; conditions: Homo sapiens
HCT-116 [26] = assay: Inhibition of the growth of colon cancer(HCT116) cell line at 0.01 uM; assay type: functional; conditions: Homo sapiens
SK-MEL-5 [27] = assay: Inhibition of the growth of melanoma cancer (SK-MEL-5) cell line at 0.01 uM; assay type: functional; conditions: Homo sapiens
MCF7 [28] = assay: Inhibition of the growth of breast cancer (MCF-7) cell line at 0.01 uM; assay type: functional; conditions: Homo sapiens
SF-295 [29] = assay: inhibition of the growth of CNS cancer(SF-295) cell line; assay type: functional; conditions: Homo sapiens
DU-145 [30] = assay: inhibition of the growth of prostate cancer(DU-145) cell line; assay type: functional; conditions: Homo sapiens
OVCAR-8 [31] = assay: Inhibition of the growth of ovarian cancer(OVCAR-8) cell line at 0.01 uM; assay type: functional; conditions: Homo sapiens
SR [32] = assay: Inhibition of the growth of leukemia(SR) cell line at 0.01 uM; assay type: functional; conditions: Homo sapiens
IGROV-1 [33] = assay: inhibition of the growth of ovarian cancer(IGROVI) cell line; assay type: functional; conditions: Homo sapiens
786-0 [34] = assay: inhibition of the growth of renal cancer(786-0) cell line; assay type: functional; conditions: Homo sapiens
SF-268 [35] = assay: inhibition of the growth of CNS cancer(SF-268) cell line; assay type: functional; conditions: Homo sapiens
M14 [36] = assay: inhibition of the growth of melanoma cancer (M14) cell line; assay type: functional; conditions: Homo sapiens
NCI-H322M [37] = assay: Inhibition of the growth of non-small-cell lung cancer (NCI-H322M) cell line at 0.01 uM; assay type: functional; conditions: Homo sapiens
UO-31 [38] = assay: Inhibition of the growth of renal cancer(UO-31) cell line at 0.01 uM; assay type: functional; conditions: Homo sapiens
RPMI-8226 [39] = assay: Inhibition of the growth of leukemia (RPMI-8226) cell line; assay type: functional; conditions: Homo sapiens
MOLT-4 [40] = assay: Inhibition of the growth of leukemia (MOLT-4) cell line at 0.01 uM; assay type: functional; conditions: Homo sapiens
NCI-H23 [41] = assay: Inhibition of the growth of non-small-cell lung cancer (NCI-H23) cell line at 0.01 uM; assay type: functional; conditions: Homo sapiens
NCI-H23 [42] = assay: Inhibition of the growth of non-small-cell lung cancer (NCI-H23) cell line; assay type: functional; conditions: Homo sapiens
HCT-15 [43] = assay: Inhibition of the growth of colon cancer(HCT-15) cell line at 0.01 uM; assay type: functional; conditions: Homo sapiens
MOLT-4 [44] = assay: Inhibition of the growth of leukemia (MOLT-4) cell line; assay type: functional; conditions: Homo sapiens
SF-539 [45] = assay: Inhibition of the growth of CNS cancer(SF-539) cell line at 0.01 uM; assay type: functional; conditions: Homo sapiens
SF-295 [46] = assay: Inhibition of the growth of CNS cancer(SF-295) cell line at 0.01 uM; assay type: functional; conditions: Homo sapiens
MDA-MB-435 [47] = assay: inhibition of the growth of breast cancer (MDA-MB-435) cell line; assay type: functional; conditions: Homo sapiens
SK-MEL-5 [48] = assay: inhibition of the growth of melanoma cancer (SK-MEL-5) cell line; assay type: functional; conditions: Homo sapiens
DU-145 [49] = assay: Inhibition of the growth of prostate cancer(DU-145) cell line at 0.01 uM; assay type: functional; conditions: Homo sapiens
NCI-H460 [50] = assay: Inhibition of the growth of non-small-cell lung cancer (NCI-H460) cell line at 0.01 uM; assay type: functional; conditions: Homo sapiens
CAKI-1 [51] = assay: Inhibition of the growth of renal cancer(CAKI-1) cell line at 0.01 uM; assay type: functional; conditions: Homo sapiens
A549 [52] = assay: Inhibition of the growth of non-small-cell lung cancer (A549/ATCC) cell line at 0.01 uM; assay type: functional; conditions: Homo sapiens
M14 [53] = assay: Inhibition of the growth of melanoma cancer (M14) cell line at 0.01 uM; assay type: functional; conditions: Homo sapiens
HCT-15 [54] = assay: inhibition of the growth of colon cancer(HCT-15) cell line; assay type: functional; conditions: Homo sapiens
A549 [55] = assay: inhibition of the growth of non-small-cell lung cancer (A549/ATCC) cell line; assay type: functional; conditions: Homo sapiens
MDA-N [56] = assay: inhibition of the growth of breast cancer(MDA-N) cell line; assay type: functional; conditions: Homo sapiens
NCI-H522 [57] = assay: Inhibition of the growth of non-small-cell lung cancer (NCI-H522) cell line at 0.01 uM; assay type: functional; conditions: Homo sapiens

SMILES: COc1ccc(OC)c(Nc2ccc3nc(N)nc(N)c3n2)c1
- IC50 [1]: 0.73 µM
- IC50 (Dihydrofolate reductase [2]): 3.6 µM

SMILES: COc1ccc(Nc2ccc3nc(N)nc(N)c3n2)cc1OC
- IC50 [1]: 0.68 µM
- IC50 (Dihydrofolate reductase [3]): 40.4 µM
- IC50 (Dihydrofolate reductase [2]): 1.1 µM

SMILES: COc1ccc(OC)c(N(C)c2ccc3nc(N)nc(N)c3n2)c1
- GI50 (UO-31 [4]): < 0.01 µM
- inhibition at 0.01 µM (SF-268 [5]): 57%
- GI50 (NCI-H522 [6]): < 0.01 µM
- GI50 (SF-539 [7]): < 0.01 µM
- GI50 (HCT-116 [8]): < 0.01 µM
- GI50 (SNB-19 [9]): < 0.01 µM
- GI50 (NCI/ADR-RES [10]): < 0.01 µM
- inhibition at 0.01 µM (MDA-N [11]): 59%
- inhibition at 0.01 µM (KM12 [12]): 55%
- inhibition at 0.01 µM (NCI/ADR-RES [13]): 82%
- GI50 (NCI-H322M [14]): < 0.01 µM
- inhibition at 0.01 µM (RPMI-8226 [15]): 68%
- GI50 (MCF7 [16]): < 0.01 µM
- inhibition at 0.01 µM (786-0 [17]): 55%
- GI50 (NCI-H460 [18]): < 0.01 µM
- GI50 (SR [19]): < 0.01 µM
- GI50 (CAKI-1 [20]): < 0.01 µM
- GI50 (KM12 [21]): < 0.01 µM
- inhibition at 0.01 µM (MDA-MB-435 [22]): 70%
- GI50 (OVCAR-8 [23]): < 0.01 µM
- inhibition at 0.01 µM (SNB-19 [24]): 73%
- inhibition at 0.01 µM (IGROV-1 [25]): 66%
- inhibition at 0.01 µM (HCT-116 [26]): 83%
- inhibition at 0.01 µM (SK-MEL-5 [27]): 76%
- inhibition at 0.01 µM (MCF7 [28]): 58%
- GI50 (SF-295 [29]): < 0.01 µM
- GI50 (DU-145 [30]): < 0.01 µM
- inhibition at 0.01 µM (OVCAR-8 [31]): 75%
- inhibition at 0.01 µM (SR [32]): 68%
- IC50 [1]: 0.041 µM
- GI50 (IGROV-1 [33]): < 0.01 µM
- GI50 (786-0 [34]): < 0.01 µM
- GI50 (SF-268 [35]): < 0.01 µM
- GI50 (M14 [36]): < 0.01 µM
- IC50 (Dihydrofolate reductase [3]): 0.034 µM
- inhibition at 0.01 µM (NCI-H322M [37]): 58%
- inhibition at 0.01 µM (UO-31 [38]): 100%
- GI50 (RPMI-8226 [39]): < 0.01 µM
- inhibition at 0.01 µM (MOLT-4 [40]): 54%
- IC50 (Dihydrofolate reductase [2]): 0.0042 µM
- inhibition at 0.01 µM (NCI-H23 [41]): 78%
- GI50 (NCI-H23 [42]): < 0.01 µM
- inhibition at 0.01 µM (HCT-15 [43]): 70%
- GI50 (MOLT-4 [44]): < 0.01 µM
- inhibition at 0.01 µM (SF-539 [45]): 65%
- inhibition at 0.01 µM (SF-295 [46]): 69%
- GI50 (MDA-MB-435 [47]): < 0.01 µM
- GI50 (SK-MEL-5 [48]): < 0.01 µM
- inhibition at 0.01 µM (DU-145 [49]): 57%
- inhibition at 0.01 µM (NCI-H460 [50]): 82%
- inhibition at 0.01 µM (CAKI-1 [51]): 70%
- inhibition at 0.01 µM (A549 [52]): 72%
- inhibition at 0.01 µM (M14 [53]): 61%
- GI50 (HCT-15 [54]): < 0.01 µM
- GI50 (A549 [55]): < 0.01 µM
- GI50 (MDA-N [56]): < 0.01 µM
- inhibition at 0.01 µM (NCI-H522 [57]): 67%

SMILES: CN(c1ccc2nc(N)nc(N)c2n1)c1cccc2ccccc12
- IC50 [1]: 2.1 µM
- IC50 (Dihydrofolate reductase [2]): 3.3 µM
